Measured values as given in PMC11513892, “Discovery of a Series of Macrocycles as Potent Inhibitors of Leishmania Infantum” (Journal of Medicinal Chemistry, 2024).
Like-named read-outs stand apart in the source and are kept apart here.

Columns and labels:
[1] = Kinetic solubility in phosphate buffered saline at pH 7.4; format: physicochemical
Experimental: (§1) The kinetic solubility in phosphate buffered saline at pH 7.4, chromatographic Log D at pH 7.4, cell permeability across a MDCK-MDR1 cell monolayer at pH 7.4, and the clearance in mouse liver microsomes of 1–12 was determined at TCG Lifesciences.

[2] = test system: T. b. rhodesiense; assay: Growth of T. b. rhodesiense trypomastigotes in axenic culture; format: cell-based, Trypanosoma brucei rhodesiense; settings: for EC50: Trypanosoma brucei, RHODESIENSE / STIB900, CSV supplement, decimal comma, read-out: EC50 T.b. rhodesiense STIB 900; for activity as inhibitor of T. b. rhodesiense (in words): text on Table S1
Excerpt: (§2) We previously reported the synthesis of a series of macrocycles, including 1 (Figure 2A), designed to investigate how structural features influence molecular chameleonicity.[15],[21] Originating from the structural similarities between 1 and hymenocardine, we investigated 1 in screens for P. falciparum and four kinetoplastid parasites: T. b. brucei, T. b. rhodesiense, T. cruzi, and L. infantum. In the screens, we also included compounds 2 and 3 (Figure 2A), which were obtained from an intermediate late in the synthetic route to 1. Since very few validated protein targets relevant to clearance of parasites are known, phenotypic assays were used to investigate the antiparasitic activity for all five parasites. For malaria, the P. falciparum blood stage 3D7 strain was used to test the three compounds. For the two Trypanosoma brucei species, the reduction in trypomastigote growth in culture medium was determined after the addition of 1–3. For T. cruzi, the intracellular parasite growth in infected human fibroblasts (MRC-5 cell line) was assessed in the presence and absence of the three inhibitors. Similarly, the growth of L. infantum was assessed in infected primary mouse macrophages (PMMs) in the presence and absence of the inhibitors. […] The assays for T. cruzi and L. infantum are complex, i.e., they determine the degree of inhibition of parasitic replication in a mammalian cell line; this complexity may lead to a high variability for some compounds.
(§3) The growth of the P. falciparum blood stage 3D7 strain,[53] the two T. brucei species in axenic cultures,[54]T. cruzi in infected human fibroblasts (MRC-5 cell line),[55] and of L. infantum in infected primary mouse macrophages (PMMs)[56] was determined as previously reported in the presence and absence of inhibitors 1–12.

[3] = test system: MDR1; assay: in vitro; format: in vitro ADME, canine; settings: dog; for Papp B→A: MDCK-MDR1, pH 7.4; for Papp A→B: MDCK-MDR1, pH 7.4, Papp AB
Experimental: (§4) The potency of macrocycles 1–12 to inhibit the growth of L. infantum was determined in a phenotypic assay in which the parasite was grown in primary peritoneal mouse macrophages (PMMs). To understand whether the SAR for inhibition of parasitic growth is impacted by low cell permeability, the permeability of compounds 1–12 was determined separately. Madin-Darby canine kidney (MDCK) cells transfected with the human MDR1 (multidrug resistance 1) gene (MDCK-MDR1 cells) were used to determine permeabilities in the apical to basolateral direction (Papp AB) as well as efflux ratios (ERs). […] Lipophilicity (Log D at pH 7.4), aqueous kinetic solubility and mouse liver microsomal metabolism were also determined for 1–12, and are discussed separately (cf. physiochemical properties and ADMET, below).
as §1

[4] = Chromatographic Log D at pH 7.4; format: physicochemical; settings: 1-octanol/PBS pH 7.4, determined by chromatography, mean of two measurements
Experimental: as §1

[5] = Clearance in human microsomes; format: in vitro ADME; settings: CSV supplement; for microsomal CLint: human, microsomes, read-out: CLint in vitro Human Microsomes
Excerpt: Supplement jm4c01370_si_002.csv, table | column: CLint in vitro Human Microsomes µL/min/mg; t(1/2) min

[6] = test system: T. b. brucei; assay: Growth of T. b. brucei trypomastigotes in axenic culture; format: cell-based; settings: Trypanosoma brucei
Excerpt: as §2, §3

[7] = test system: MRC-5 cells; assay: Host cell cytotoxicity in MRC-5 cells; format: cell-based, human; settings: CSV supplement; decimal comma
[8] = test system: P. falciparum blood stage 3D7 strain; assay: Growth of P. falciparum blood stage 3D7 strain (phenotypic); format: cell-based, Plasmodium falciparum; settings: Figure 2A; for EC50: Plasmodium falciparum, 3D7, mean (SD) from 2 to 14 measurements
Excerpt: as §2, §3

[9] = test system: L. infantum; assay: Growth of L. infantum in infected primary mouse macrophages (PMMs), phenotypic assay; format: cell-based, Leishmania infantum; settings: Leishmania infantum, Macrophage
Excerpt: as §2, §4, §3

[10] = test system: T. cruzi; assay: Intracellular growth of T. cruzi in infected human fibroblasts (MRC-5 cell line); format: cell-based; settings: Trypanosoma cruzi
Excerpt: as §2, §3

[11] = Clearance in mouse liver microsomes; format: in vitro ADME; settings: for microsomal CLint: mouse, liver microsomes
Experimental: as §1

[12] = test system: primary mouse macrophages (PMMs); assay: Host cell cytotoxicity in primary mouse macrophages (PMM); format: cell-based; settings: CSV supplement; decimal comma
[13] = Metabolite identification after incubation with rat liver microsomes; format: in vitro ADME; settings: Figure S3: rat liver microsomes, samples at 5, 10, 20, 30 and 60 minutes
Experimental: page 4: Figure S2. Endo and exo conformations for compound 5, obtained using the Monte Carlo-QM protocol for conformational sampling. Minimum energy conformations (MECs) and all conformations within 5 kcal/mol of the MECs are shown. Figure S3. Metabolically labile sites (indicated by red circles) observed for compound 3 after incubation with rat liver microsomes. Samples were collected at 5, 10, 20, 30 and 60 minutes. […]

[14] = test system: Leishmania donovani; assay: Activity against Leishmania donovani; format: cell-based
[15] = test system: MDCK-MDR1 cells; assay: in vitro; format: in vitro ADME, canine; settings: dog, MDCK-MDR1, pH 7.4
Experimental: as §4, §1

[16] = phosphate buffered saline, pH 7.4, CSV supplement, read-out: Kinetic solubility
[17] = phosphate buffered saline, pH 7.4, phosphate buffered saline pH 7.4, assay range 2.5–200 μM, read-out: solubility (kinetic)
[18] = MDCK-MDR1, pH 7.4, ER, efflux ratio (BA/AB)
[19] = MDCK-MDR1, pH 7.4, MDCK MDR1 - pH 7.4 Efflux Ratio
[20] = CSV supplement, decimal comma, read-out: EC50 T.b. brucei Squib 427
[21] = CSV supplement, decimal comma, read-out: EC50 L. infantum MHOM/MA(BE)/67
[22] = Table 1, mean (standard deviation, number of measurements), read-out: EC50 (μM), inhibition of the growth of L. infantum
[23] = MRC5, Figure 2A, mean (SD) from 2 to 14 measurements, read-out: EC50 T. cruzi
[24] = MRC5, Table S1, mean (SD), 2 to 14 measurements, unit not given in Table S1, read-out: In vitro potency, T. cruzi
[25] = TULAHUEN, MRC5, read-out: EC50 T. cruzi Tulahuen C4 (LacZ)
[26] = CSV supplement, read-out: CLint in vitro Mouse Microsomes
[27] = incubation with mouse liver microsomes, read-out: CLint
[28] = Table S1, mean (SD), 2 to 14 measurements, unit not given in Table S1, read-out: In vitro potency, T. b. brucei

Row | Compound | solubility kinetic [1, 16] | solubility kinetic [1, 17] | EC50 [2] | Papp B→A [3] | efflux ratio [3, 18] | efflux ratio [3, 19] | Papp A→B [3] | chromatographic logD [4] | t(1/2), Human Microsomes [5] | microsomal CLint [5] | EC50 [6, 20] | MRC-5 cells Human Lung Fibroblast Cells (cytotoxicity) [7] | potency as inhibitor of P. falciparum (in words) [8] | EC50 [8] | EC50 [9, 22] | EC50 [10, 25] | t(1/2), Mouse Microsomes ([11]; CSV supplement) | microsomal CLint [11, 26] | microsomal CLint [11, 27] | PMM Primary Mouse Macrophages (inf-LMPH) (cytotoxicity) [12] | also measured
1 | CC(C)(C)OC(=O)N[C@H]1Cc2ccc(cc2)Oc2ccc(cc2)C(=O)CNC(=O)[C@H](Cc2ccccc2)NC1=O [Compound 1] | 24 µg/mL | 44 µM | 6 µM | 214 nm/s | 4.3 | 4.3 | 50 nm/s | 4 | 3,5 min | 497 µL/min/mg | 6.1 µM | >64 µM | low or no potency | 21 µM | 33 µM | 14.6 µM | <3 min | > 578 µL/min/mg | > 580 µL/min/mg | 48,0 µM | EC50 [9, 21]: 32.8 µM; EC50 [10, 23]: 10 to 30 µM; EC50 [10, 24]: 15 µM
2 | CC(=O)Nc1cc2ccc1Oc1ccc(cc1)C[C@H](NC(=O)OC(C)(C)C)C(=O)N[C@@H](Cc1ccccc1)C(=O)NCC2=O [Compound 2] | 101 µg/mL | > 100 µM | 29 µM | 133 nm/s | 19 | 19.3 | 7 nm/s | 3.2 | 6,1 min | 285 µL/min/mg | 37 µM | 50,5 µM | low or no potency | > 25 µM | 31 µM | 41 µM | 6,0 min | 257 µL/min/mg | 260 µL/min/mg | >64 µM | solubility kinetic ([1]; phosphate buffered saline pH 7.4, assay range 2.5–200 μM, read-out: solubility (kinetic)): 169 µM
3 | CC(C)(C)OC(=O)N[C@H]1Cc2ccc(cc2)Oc2ccc(cc2NC(=O)c2ccccn2)C(=O)CNC(=O)[C@H](Cc2ccccc2)NC1=O [Compound 3, tert-Butyl ((8S,11S)-8-Benzyl-4,7,10-trioxo-3^2-(picolinamido)-2-oxa-6,9-diaza-1,3(1,4)-dibenzenacyclododecaphane-11-yl)carbamate] | 1 µg/mL | < 2.5 µM | 9.1 µM | 222 nm/s | 6.4 | 6.4 | 35 nm/s | 4.9 | <3 min | > 578 µL/min/mg | 15.1 µM | 57,6 µM | moderately potent | 3 µM | 1.8 µM | 20 µM | <3 min | > 578 µL/min/mg | > 580 µL/min/mg | >64 µM | metabolite identification, sites of metabolism [13]: oxidative metabolism occurring at the P2 and P3 positions, and at the α-carbon atom of the tyrosine moiety in the macrocyclic ring; EC50 [14]: 1.04 ± 0.25 µM; EC50 [6, 28]: 15 µM; EC50 ([9]; Figure 2, mean (SD), miltefosine from 19 measurements, read-out: EC50 L. infantum): < 2 µM; EC50 [10, 23]: 10 to 30 µM
4 | CC(C)(C)OC(=O)N[C@H]1Cc2ccc(cc2)Oc2ccc(cc2NC(=O)c2ccccn2)CCNC(=O)[C@H](Cc2ccccc2)NC1=O [Compound 6, tert-Butyl ((8S,11S)-8-Benzyl-7,10-dioxo-3^2-(picolinamido)-2-oxa-6,9-diaza-1,3(1,4)-dibenzenacyclododecaphane-11-yl)carbamate] | 3.8 µg/mL | 5.9 µM | 6.3 µM | 799 nm/s | 8.4 | 8.4 | > 50 nm/s | 5.1 |  |  | 11.8 µM | 45,8 µM |  |  | 12 µM | 18.8 µM | <3 min | > 578 µL/min/mg | > 580 µL/min/mg | 16,0 µM | Papp AB [15]: 9.5 ×10^–6 cm/s; EC50 [6, 28]: 12 µM; EC50 [9, 21]: 12.3 µM; EC50 [10, 24]: 19 µM
5 | CC(C)(C)OC(=O)N[C@H]1Cc2ccc(cc2)Oc2ccc(cc2NC(=O)c2ccccn2)C(=O)CNC(=O)[C@H](c2ccccc2)NC1=O [Compound 9, tert-Butyl ((8S,11S)-4,7,10-Trioxo-8-phenyl-3^2-(picolinamido)-2-oxa-6,9-diaza-1,3(1,4)-dibenzenacyclododecaphane-11-yl)carbamate] | 10.3 µg/mL | 16 µM | 1.9 µM | 42 nm/s | 9.9 | 9.9 | 4 nm/s | 4.4 | 8,8 min | 197 µL/min/mg | 7.7 µM | >64 µM |  |  | 6.6 µM | 18.9 µM | 8,4 min | 206 µL/min/mg | 210 µL/min/mg | >64 µM | activity as inhibitor of T. b. rhodesiense (in words) [2]: moderately active; EC50 [10, 24]: 19 µM
6 | CC(C)C[C@@H]1NC(=O)[C@@H](NC(=O)OC(C)(C)C)Cc2ccc(cc2)Oc2ccc(cc2NC(=O)c2ccccn2)C(=O)CNC1=O [Compound 10, tert-Butyl ((8S,11S)-8-Isobutyl-4,7,10-trioxo-3^2-(picolinamido)-2-oxa-6,9-diaza-1,3(1,4)-dibenzenacyclododecaphane-11-yl)carbamate] | 4.8 µg/mL | 7.6 µM | 2.1 µM | 68 nm/s | 3.1 | 3.1 | 22 nm/s | 4.8 | 4,8 min | 361 µL/min/mg | 8.5 µM | >64 µM |  |  | 2.1 µM | 50 µM | <3 min | > 578 µL/min/mg | > 580 µL/min/mg | >64 µM | activity as inhibitor of T. b. rhodesiense (in words) [2]: moderately active
